This is an account of results in article PMC10693528, “A high-throughput metabolomics in vitro platform for the characterization of hepatotoxicity” (Cell Biology and Toxicology, 2023).

Broadly, the EC50 is the concentration needed to bring the measured effect to its halfway point. Broadly, the viability is a read-out of living cells in per cent, often relative to untreated cells.

Marks after values point to notes of the source that are not given here.

One data set deals with HepG2 cells. As to the kind of experiment: Range finder cell viability (CellTiter-Glo, ATP) dose response. Type of data set: cell-based, human. Particulars: Homo sapiens, HepG2; estimated from ATP dose response curve, 48 h, rounded. How it is done:
(§1) HepG2 cells (ECACC, UK, maximum passage number 9) were maintained and grown on Dulbecco’s MEM media supplemented with 1% v/v of penicillin/streptomycin, L-glutamine (200 mM, 1% v/v), non-essential amino acids (100x, 1% v/v), and 10% FBS (PAN-Biotech, Aidenbach, Germany) in 75 cm^2 culture flasks (TPP, Switzerland). For cell passaging (~ 80% confluency) media was removed and cells were washed twice with pre-warmed calcium and magnesium free Dulbecco’s PBS (PAN-Biotech, Aidenbach, Germany). Trypsin was used for cell detachment. Then, 20 mL culture medium was added, and single-cell suspensions were obtained by passing the suspension through a Combitip (Eppendorf, Germany). A fraction of the cell suspension was then transferred to a new culture vessel. For experiments, 15,000 cells per well (passage 5-9) were seeded in 96-well flat-bottom plates (TPP, Switzerland) and incubated for 24 h for cell attachment (37 °C and 5% CO^2). Afterwards, culture media were exchanged, test substances applied, and plates incubated for 48 h (37 °C and 5% CO^2).
In order to define appropriate dose levels, range finder experiments were performed prior to metabolome experiments. Substances were administered to HepG2 cells in increasing concentrations and incubated for 48 h (6 replicates per concentration). Viability and cytotoxicity tests were performed as described previously. Luminescence values resulting from CellTiter-Glo® assays were used to build dose response curves. Curve fitting and effective concentrations (ECs) values were calculated in R using three-parameter Weibull model (W1.3). To obtain a full metabolome-based dose-response effect, five concentrations (EC1, EC5, EC15, EC50, EC85) were selected for metabolome experiments (Table 2). […] Calculated ECs values were rounded to the nearest integer number for dose selection.
As to `O=C(O)c1cc(Oc2ccc(C(F)(F)F)cc2Cl)ccc1[N+](=O)[O-]` [Acifluorfen], the EC50 is 500 µM.

Take `CC(=O)N1CCN(c2ccc(OCC3COC(Cn4ccnc4)(c4ccc(Cl)cc4Cl)O3)cc2)CC1` (centres unmarked) [Ketoconazole]: the EC50 was 10 µM.

In the case of `CCC(CC)Nc1c([N+](=O)[O-])cc(C)c(C)c1[N+](=O)[O-]` [Pendimethalin], the concentration giving a half-maximal response (EC50) is 94 µM.

For the molecule `Cc1cccc(Nc2cc(Cl)nc(SCC(=O)O)n2)c1C` [Wy-14643], the EC50 was 500 µM.

Regarding `O=c1cc(-c2ccccc2)oc2ccc3ccccc3c12` [β-naphthoflavone], the 50% effective concentration (EC50) was 100 µM.

Still in this data set, the particulars now being: estimated from ATP dose response curve, 48 h, rounded.
For the molecule `O=C(O)c1cc(Oc2ccc(C(F)(F)F)cc2Cl)ccc1[N+](=O)[O-]` [Acifluorfen], the EC1 was 50 µM, the EC5 was 100 µM, the EC15 is 200 µM and the EC85 is 800 µM.

For the molecule `CC(=O)N1CCN(c2ccc(OCC3COC(Cn4ccnc4)(c4ccc(Cl)cc4Cl)O3)cc2)CC1` (centres unmarked) [Ketoconazole], the EC1 is listed as 5^b μM, the EC5 is 0.2 µM, the EC15 is 1 µM and the EC85 was 50 µM.

With `CCC(CC)Nc1c([N+](=O)[O-])cc(C)c(C)c1[N+](=O)[O-]` [Pendimethalin], the EC1 was 24 µM, the EC5 is 39 µM, the EC15 is 56 µM and the EC85 is 157 µM.

On to `Cc1cccc(Nc2cc(Cl)nc(SCC(=O)O)n2)c1C` [Wy-14643], for which the EC1 was 25 µM, the EC5 is 50 µM, the EC15 is 150 µM and the EC85 is 1000 µM.

With `O=c1cc(-c2ccccc2)oc2ccc3ccccc3c12` [β-naphthoflavone], the EC1 is 0.1 µM, the EC5 was 1 µM, the EC15 is 10 µM and the EC85 is 700 µM.

Test system in a further data set: not listed separately
Briefly: Cell viability (ATP, CellTiter-Glo) in parallel with metabolomics experiments. The conditions noted are these: human, HepG2 cells, Percentage of viability (ATP) compared to the vehicle control, C1, C1, 48 h, n = 6. How it is done:
as §1
For each substance, one 96-well plate was set up with 6 replicates per concentration, 12 replicates for vehicle controls (yielding a final concentration of 0.5% DMSO in the well), 6 replicates for positive controls (Bezafibrate 1000 μM), and 6 replicates for blank controls (media without cells). To minimize potential evaporation, the outer rows and columns of the plate were omitted and filled with PBS instead. Reference samples prepared from lyophilized HepG2 cells were measured in parallel throughout the entire analytical process (technical replicates). […] Lyophilized HepG2 cells reference samples were used to account for variability between plates and in concentration series for linearity checks. After 48 h, the assays were stopped by washing the wells once with 100 μL 0.9% NaCl followed by snap freezing the plates on liquid nitrogen for 5 s. Plates were placed immediately on dry ice and 50 μL ice-cooled isopropanol 80% (v/v) were added to quench metabolism and precipitate proteins. Plates were stored at − 80 °C until LC/ MS analysis.
(In general: ATP-based viability assays read luminescence as a measure of living cells.)
`O=C(O)c1cc(Oc2ccc(C(F)(F)F)cc2Cl)ccc1[N+](=O)[O-]` [Acifluorfen]: the viability at 48 h was found to be 105 ± 4.2%.

As for `CC(=O)N1CCN(c2ccc(OCC3COC(Cn4ccnc4)(c4ccc(Cl)cc4Cl)O3)cc2)CC1` (centres unmarked) [Ketoconazole], the viability at 48 h turned out to be 102 ± 3.1%.

As for `Cc1cccc(Nc2cc(Cl)nc(SCC(=O)O)n2)c1C` [Wy-14643], the viability at 48 h stood at 101 ± 3.8%.

With `O=c1cc(-c2ccccc2)oc2ccc3ccccc3c12` [β-naphthoflavone], the viability at 48 h was found to be 103 ± 4.3%.

Staying with this data set, now noted: human, HepG2 cells, Percentage of viability (ATP) compared to the vehicle control, C2, C2, 48 h, n = 6.
As to `O=C(O)c1cc(Oc2ccc(C(F)(F)F)cc2Cl)ccc1[N+](=O)[O-]` [Acifluorfen], the viability at 48 h was 105 ± 4.8%.

`CC(=O)N1CCN(c2ccc(OCC3COC(Cn4ccnc4)(c4ccc(Cl)cc4Cl)O3)cc2)CC1` (centres unmarked) [Ketoconazole]: the viability at 48 h is 102 ± 0.9%.

Consider `Cc1cccc(Nc2cc(Cl)nc(SCC(=O)O)n2)c1C` [Wy-14643], for which the viability at 48 h stood at 97.1 ± 3.1%.

`O=c1cc(-c2ccccc2)oc2ccc3ccccc3c12` [β-naphthoflavone]: the viability at 48 h turned out to be 114 ± 3.7%.

The same data set, now with this note: human, HepG2 cells, Percentage of viability (ATP) compared to the vehicle control, C3, C3, 48 h, n = 6.
With `O=C(O)c1cc(Oc2ccc(C(F)(F)F)cc2Cl)ccc1[N+](=O)[O-]` [Acifluorfen], the viability at 48 h amounted to 99.9 ± 1.3%.

For the molecule `CC(=O)N1CCN(c2ccc(OCC3COC(Cn4ccnc4)(c4ccc(Cl)cc4Cl)O3)cc2)CC1` (centres unmarked) [Ketoconazole], the viability at 48 h was 91.2 ± 1.5%.

For `Cc1cccc(Nc2cc(Cl)nc(SCC(=O)O)n2)c1C` [Wy-14643], the viability at 48 h turned out to be 94.6 ± 1.8%.

As to `O=c1cc(-c2ccccc2)oc2ccc3ccccc3c12` [β-naphthoflavone], the viability at 48 h amounted to 104 ± 1.6%.

Staying with this data set, now noted: human, HepG2 cells, Percentage of viability (ATP) compared to the vehicle control, C4, C4, 48 h, n = 6.
For the molecule `O=C(O)c1cc(Oc2ccc(C(F)(F)F)cc2Cl)ccc1[N+](=O)[O-]` [Acifluorfen], the viability at 48 h turned out to be 58.4 ± 1.5%.

As for `CC(=O)N1CCN(c2ccc(OCC3COC(Cn4ccnc4)(c4ccc(Cl)cc4Cl)O3)cc2)CC1` (centres unmarked) [Ketoconazole], the viability at 48 h was found to be 64.7 ± 1.5%.

`Cc1cccc(Nc2cc(Cl)nc(SCC(=O)O)n2)c1C` [Wy-14643]: the viability at 48 h turned out to be 46.4 ± 2%.

In the case of `O=c1cc(-c2ccccc2)oc2ccc3ccccc3c12` [β-naphthoflavone], the viability at 48 h came to 34.5 ± 3.4%.

The same data set, now with this note: human, HepG2 cells, Percentage of viability (ATP) compared to the vehicle control, C5, C5, 48 h, n = 6.
For the molecule `O=C(O)c1cc(Oc2ccc(C(F)(F)F)cc2Cl)ccc1[N+](=O)[O-]` [Acifluorfen], the viability at 48 h worked out at 27.8 ± 1.3%.

As to `CC(=O)N1CCN(c2ccc(OCC3COC(Cn4ccnc4)(c4ccc(Cl)cc4Cl)O3)cc2)CC1` (centres unmarked) [Ketoconazole], the viability at 48 h is 28.2 ± 1.9%.

`Cc1cccc(Nc2cc(Cl)nc(SCC(=O)O)n2)c1C` [Wy-14643]: the viability at 48 h stood at 23.2 ± 1.1%.

As for `O=c1cc(-c2ccccc2)oc2ccc3ccccc3c12` [β-naphthoflavone], the viability at 48 h stood at 15 ± 2.1%.

Still in this data set, the particulars now being: human, Percentage of viability (ATP) compared to the vehicle control, C1, C1, 48 h, n = 6.
Take `CCC(CC)Nc1c([N+](=O)[O-])cc(C)c(C)c1[N+](=O)[O-]` [Pendimethalin]: the viability at 48 h was found to be 98.3 ± 3.9%.

The data set is the same for the next values; noted with them: human, Percentage of viability (ATP) compared to the vehicle control, C2, C2, 48 h, n = 6.
As for `CCC(CC)Nc1c([N+](=O)[O-])cc(C)c(C)c1[N+](=O)[O-]` [Pendimethalin], the viability at 48 h amounted to 100 ± 2.9%.

Staying with this data set, now noted: human, Percentage of viability (ATP) compared to the vehicle control, C3, C3, 48 h, n = 6.
For `CCC(CC)Nc1c([N+](=O)[O-])cc(C)c(C)c1[N+](=O)[O-]` [Pendimethalin], the viability at 48 h turned out to be 82.4 ± 4.9%.

Still in this data set, the particulars now being: human, Percentage of viability (ATP) compared to the vehicle control, C4, C4, 48 h, n = 6.
On to `CCC(CC)Nc1c([N+](=O)[O-])cc(C)c(C)c1[N+](=O)[O-]` [Pendimethalin], for which the viability at 48 h is 36.1 ± 3.2%.

Staying with this data set, now noted: human, Percentage of viability (ATP) compared to the vehicle control, C5, C5, 48 h, n = 6.
As for `CCC(CC)Nc1c([N+](=O)[O-])cc(C)c(C)c1[N+](=O)[O-]` [Pendimethalin], the viability at 48 h was 18.5 ± 3.2%.
